{"source": "patent US20240191226A1", "about": "“SMAD2 INHIBITION IN BETA CELLS FOR TYPE 2 DIABETES THERAPY” (University of Pittsburgh - Of the Commonwealth System of …, priority 2021, published 2024)", "key": {"[1]": {"system": "smad2", "assay": "AAV6-GFP-U6-mSMAD2_shRNA treatment of beta-TC cells, Western blot", "type": "cell-based", "conditions": "beta-TC cells sorted after transfection, treated for three days, Western blot (FIG. 19A)", "method": "(§1) FIGS. 19A-19C. AAV6-GFP-U6-mSMAD2_shRNA treatment in vitro blocks smad2 expression in MIN6 and Beta-TC cell lines. […] Phospho smad2 expression is nearly absent in Min6 cells after AAV6-GFP-U6-mSMAD2_shRNA treatment (B). […] Similar experiments can be performed in human beta cell lines (EndoC-bH5, Human Cell Design) and primary human beta cells.\n(§2) FIGS. 19A-19C show results from experiments where Min6 cells or beta-TC cells were treated with AAV6-GFP-U6-mSMAD2_shRNA for three days. A lysate was prepared from total or sorted cells. RT-PCR, and Western blot for Smad2, phospho Smad2 and Beta-actin was performed. […] Phospho smad2 expression is nearly absent in Min6 cells after AAV6-GFP-U6-mSMAD2_shRNA treatment (FIG. 19B)."}, "[2]": {"system": "smad2", "assay": "AAV6-GFP-U6-mSMAD2_shRNA treatment of Min6 cells, Western blot and RT-PCR", "type": "cell-based", "method": "as §1, §2"}}}
{"substance": "AAV6-GFP-U6-mSMAD2_shRNA: AAV6 construct with smad2 shRNA sequence SEQ ID NO: 34, targeting sequence SEQ ID NO: 35 (DNA CCGGTGGTGTTCAATCGCATACTATCTCGAGATAGTATGCGATTGAACACCATTTTTG)", "values": [{"measurement": "smad2 expression", "setting": "[1]", "result": "near complete ablation"}, {"measurement": "smad2 expression", "setting": "[2]; Min6 cells sorted after transfection, treated for three days, Western blot (FIG. 19A)", "result": "near complete ablation"}, {"measurement": "Phospho smad2 expression", "setting": "[2]; Min6 cells, treated for three days, Western blot (FIG. 19B)", "result": "nearly absent"}, {"measurement": "RT-PCR quantification of MIN6 mRNA (smad2)", "setting": "[2]; sorted MIN6 cells, treated for three days (FIG. 19C)", "result": "complete absence"}]}
